1 substance from patent US10472418B2, “Composition for preventing or treating lung cancer comprising antibody against CD66C and chemotherapeutic agent” (DINONA, priority 2016, dated 2019) can be followed below.

The assay concerns anti-CD66c antibody, AP11. The experiment in a line: Inhibition of AP11 binding on A549 cells by recombinant antigen, flow cytometry. The following applies: 10, 50 and 100 μg recombinant antigen conjugated with AP11 before A549 cells. The protocol:
In order to confirm whether the purified recombinant antigen (CD66c-HuIgFc) in the above Example 1-3 acts as CD66c antigen, inhibition of conjugation of anti-CD66c antibody, AP11, on the surface of A549 cells by the above recombinant antigen was confirmed by flow cytometry, and the result is shown in FIG. 6.
Specifically, after conjugating 0, 10, 50 and 100 μg of the above recombinant antigen with AP11 antibody for 30 min at 4° C., it was added to A549 cells and reacted for 30 min at 4° C., added with 3 ml of PBS, centrifuged for 3 min at 1500 rpm and washed. To confirm the conjugated antibody, secondary antibody, goat anti-Mouse IgM FITC (DiNonA) was diluted 200 times, added, reacted for 15 min at 4° C., washed as above with 3 ml of PBS and measured by flow cytometry.

In the case of “CD66c-HuIgFc: recombinant antigen linking CD66c 34~340 aa region and human immunoglobulin Fc region CH2-CH3”, the “blocking of anti-CD66c mAb (AP11) binding to A549 cells” value was “blocking was observed proportional to the treated amount”.
